The results in this text go back to ChEMBL document CHEMBL4184276, “Curcumin inspired 2-chloro/phenoxy quinoline analogues: Synthesis and biological evaluation as potential anticancer agents” (Bioorg Med Chem Lett, 2018).

For orientation: IC50 means the concentration at which inhibition is half-maximal.

The subject of data set [1] is PC-3. Kind of data set: Cytotoxicity against human PC3 cells assessed as reduction in cell viability after 48 hrs by MTT assay. It counts as functional, cell-based. The conditions noted are these: PC-3, 48 h.
The subject of another data set is HGC-27. Kind of data set: Cytotoxicity against human HGC27 cells assessed as reduction in cell viability after 48 hrs by MTT assay. It is filed as functional, cell-based. The settings on record: HGC-27, 48 h.
In a further data set the test system is 4T1. Kind of data set: Cytotoxicity against mouse 4T1 cells assessed as reduction in cell viability after 48 hrs by MTT assay. The conditions noted are these: 4T1, 48 h. It is filed as functional, cell-based. For orientation: Tetrazolium assays rely on reduction of a dye to a coloured formazan, in cell work by metabolically active cells.
A further data set deals with HeLa. Kind of data set: Cytotoxicity against human HeLa cells assessed as reduction in cell viability after 48 hrs by MTT assay. It counts as functional, cell-based.
The subject of data set [2] is NCI-H460. Kind of data set: Cytotoxicity against human NCI-H460 cells assessed as reduction in cell viability after 48 hrs by MTT assay. It is filed as functional, cell-based. The settings on record: NCI-H460, 48 h.
Data set [3] concerns DU-145. Kind of data set: Cytotoxicity against human DU145 cells assessed as reduction in cell viability after 48 hrs by MTT assay. It is filed as functional, cell-based. The conditions noted are these: DU-145, 48 h.
Data set [4] is described as follows: Aqueous solubility in milli-Q water at 2 mg incubated for 5 mins followed by sonication for 1 mins measured after 24 hrs by UV-Visible spectroscopic method. It counts as physicochemical.
Data set [5] concerns DU-145. Kind of data set: Potency index, ratio of curcumin IC50 to compound IC50 for human DU145 cells. It is filed as functional.
Data set [6] concerns PC-3. Kind of data set: Potency index, ratio of curcumin IC50 to compound IC50 for human PC3 cells. It counts as functional.
Data set [7] has as its system NCI-H460. Kind of data set: Potency index, ratio of curcumin IC50 to compound IC50 for human NCI-H460 cells. It is filed as functional.

With `COc1ccc(/C=C/C(=O)/C=C/c2cc3ccccc3nc2Oc2ccccc2)cc1`, the IC50 in the data set on PC-3 [1], with HGC-27, in the data set with 4T1, in the data set on HeLa, in the data set with NCI-H460 [2] and in the data set on DU-145 [3] was above 10 µM each time.
Turning to `COc1cc(OC)c(/C=C/C(=O)/C=C/c2cc3ccccc3nc2Oc2ccccc2C(C)C)c(OC)c1`, the IC50 with PC-3 [1], with HGC-27, in the data set on 4T1, in the data set on HeLa, with NCI-H460 [2] and in the data set on DU-145 [3] was above 10 µM each time.
As to `COc1cc(OC)c(/C=C/C(=O)/C=C/c2cc3ccccc3nc2Cl)c(OC)c1`, the IC50 in the data set on PC-3 [1], in the data set on HGC-27, with 4T1, in the data set with HeLa, with NCI-H460 [2] and in the data set on DU-145 [3] was above 10 µM in each case.
Consider `COc1ccc(OC)c(/C=C/C(=O)/C=C/c2cc3ccccc3nc2Oc2cccc(Cl)c2)c1`, for which the IC50 with PC-3 [1], in the data set on HGC-27, with 4T1, in the data set with HeLa, in the data set on NCI-H460 [2] and with DU-145 [3] was above 10 µM each time.
In the case of `COc1ccc(/C=C/C(=O)/C=C/c2cc3ccccc3nc2Cl)cc1`, the IC50 in the data set with PC-3 [1], with HGC-27, in the data set on 4T1, in the data set on HeLa, in the data set with NCI-H460 [2] and with DU-145 [3] was above 10 µM throughout.
With `COc1ccc(/C=C/C(=O)/C=C/c2cc3ccccc3nc2Oc2ccc(Br)cc2)cc1`, the IC50 in the data set with PC-3 [1], in the data set with HGC-27, with 4T1, in the data set on HeLa, with NCI-H460 [2] and in the data set with DU-145 [3] was above 10 µM each time.
`COc1cc(OC)c(OC)cc1/C=C/C(=O)/C=C/c1cc2ccccc2nc1Oc1cccc(Cl)c1`: the IC50 with PC-3 [1], with HGC-27, in the data set on 4T1, in the data set with HeLa, in the data set with NCI-H460 [2] and with DU-145 [3] was above 10 µM each time.
On to `COc1ccc(OC)c(/C=C/C(=O)/C=C/c2cc3ccccc3nc2Oc2ccc(Br)cc2)c1`, for which the IC50 with PC-3 [1], in the data set on HGC-27, in the data set with 4T1, in the data set with HeLa, in the data set on NCI-H460 [2] and in the data set with DU-145 [3] was above 10 µM throughout.
On to `COc1ccc(/C=C/C(=O)/C=C/c2cc3ccccc3nc2Oc2ccccc2)cc1OC`, for which the IC50 in the data set with PC-3 [1], with HGC-27, in the data set on 4T1, in the data set with HeLa, in the data set with NCI-H460 [2] and in the data set on DU-145 [3] was above 10 µM each time.
For `COc1cc(OC)c(/C=C/C(=O)/C=C/c2cc3ccccc3nc2Oc2ccc(Br)cc2)c(OC)c1`, the IC50 with PC-3 [1], in the data set on HGC-27, with 4T1, in the data set on HeLa, in the data set with NCI-H460 [2] and in the data set with DU-145 [3] was above 10 µM throughout.
Turning to `COc1cc(OC)c(OC)cc1/C=C/C(=O)/C=C/c1cc2ccccc2nc1Oc1ccccc1`, the IC50 in the data set on PC-3 [1] stood at 7.29 µM; in the data set on HGC-27, 10.5 µM; in the data set on 4T1, 7.63 µM; with HeLa, 12.2 µM; in the data set with NCI-H460 [2], 8.03 µM; in the data set on DU-145 [3] it was 9.22 µM. In addition, the solubility entry in data set [4] is given as “Soluble”. In addition, the “Ratio IC50” value with DU-145 [5] was 3.6; with PC-3 [6] it was 2.6; in the data set on NCI-H460 [7], 2.1.
Consider `COc1ccc(/C=C/C(=O)/C=C/c2cc3ccccc3nc2Oc2ccc(Br)cc2)cc1OC`, for which the IC50 in the data set on PC-3 [1], in the data set on HGC-27, in the data set with 4T1, with HeLa, with NCI-H460 [2] and in the data set with DU-145 [3] was above 10 µM throughout.
Take `COc1cc(OC)c(/C=C/C(=O)/C=C/c2cc3ccccc3nc2Oc2cccc(Cl)c2)c(OC)c1`: the IC50 with PC-3 [1], in the data set on HGC-27, in the data set with 4T1, in the data set with HeLa, in the data set with NCI-H460 [2] and with DU-145 [3] was above 10 µM each time.
For the compound `COc1cc(OC)c(/C=C/C(=O)/C=C/c2cc3ccccc3nc2Oc2ccccc2)c(OC)c1`, the IC50 with PC-3 [1], in the data set on HGC-27, in the data set with 4T1, with HeLa, in the data set on NCI-H460 [2] and in the data set on DU-145 [3] was above 10 µM throughout.
On to `COc1ccc(/C=C/C(=O)/C=C/c2cc3ccccc3nc2Cl)c(OC)c1`, for which the IC50 with PC-3 [1], in the data set on HGC-27, in the data set with 4T1, in the data set with HeLa, with NCI-H460 [2] and in the data set with DU-145 [3] was above 10 µM each time.
With `COc1ccc(/C=C/C(=O)/C=C/c2cc3ccccc3nc2Oc2ccccc2)c(OC)c1`, the IC50 with PC-3 [1], with HGC-27, in the data set with 4T1, with HeLa, in the data set on NCI-H460 [2] and in the data set with DU-145 [3] was above 10 µM throughout.
In the case of `COc1ccc(/C=C/C(=O)/C=C/c2cc3ccccc3nc2Oc2cccc(Cl)c2)cc1OC`, the IC50 in the data set with PC-3 [1], in the data set with HGC-27, in the data set on 4T1, in the data set with HeLa, with NCI-H460 [2] and in the data set on DU-145 [3] was above 10 µM in each case.
`COc1cc(/C=C/C(=O)CC(=O)/C=C/c2ccc(O)c(OC)c2)ccc1O` [CURCUMIN]: the IC50 in the data set with PC-3 [1] was found to be 18.7 µM; in the data set with NCI-H460 [2] it was 17.1 µM; with DU-145 [3] it was 33.1 µM. The solubility entry in [4] was “Soluble”.
As for `COc1ccc(/C=C/C(=O)/C=C/c2cc3ccccc3nc2Oc2ccc(Br)cc2)c(OC)c1`, the IC50 with PC-3 [1], in the data set on HGC-27, in the data set with 4T1, in the data set on HeLa, in the data set with NCI-H460 [2] and with DU-145 [3] was above 10 µM throughout.
For `COc1ccc(/C=C/C(=O)/C=C/c2cc3ccccc3nc2Oc2cccc(Cl)c2)c(OC)c1`, the IC50 with PC-3 [1], in the data set with HGC-27, in the data set on 4T1, in the data set with HeLa, in the data set with NCI-H460 [2] and in the data set on DU-145 [3] was above 10 µM in each case.
